Tests used:
[1] = tested on: CCRF-CEM; experiment: Cytotoxicity against human CEM cells; assay type: functional, cell-based
[2] = tested on: HeLa; experiment: Cytotoxicity against human HeLa cells; assay type: functional, cell-based
[3] = tested on: A549; experiment: Cytotoxicity against human A549 cells; assay type: functional, cell-based
[4] = tested on: MCF7; experiment: Cytotoxicity against human MCF7 cells; assay type: functional, cell-based
[5] = biological target: Tubulin; experiment: Binding affinity to tubulin (unknown origin) by fluorescence assay; assay type: protein-complex assay, Homo sapiens
[6] = biological target: Tubulin; experiment: Binding affinity to tubulin (unknown origin); assay type: protein-complex assay, Homo sapiens
[7] = biological target: T1, Tubulin (Homo sapiens) (UniProt P68371+Q9H4B7+P0DPH7+P68366+Q13509+Q71U36+P04350+Q3ZCM7+P07437+P68363+Q9BQE3+Q6PEY2+Q13885+Q9BVA1+Q9BUF5); experiment: Inhibition of colchicine binding to tubulin (unknown origin) at 100 uM; assay type: protein-complex assay
[8] = biological target: T1, Tubulin (Homo sapiens); experiment: Inhibition of colchicine binding to tubulin (unknown origin) at 50 uM; assay type: protein-complex assay
[9] = biological target: T1, Tubulin (Homo sapiens); experiment: Inhibition of colchicine binding to tubulin (unknown origin) at 25 uM; assay type: protein-complex assay
[10] = Cytotoxicity against human Non-small cell lung cancer cell; assay type: functional, cell-based; details: Cancer cell lines
[11] = tested on: CCRF-CEM; experiment: Cell cycle arrest in human CEM cells assessed as accumulation at G2/M phase; assay type: functional
[12] = Cell cycle arrest in human CCRF-CEM/VLB100 cells assessed as accumulation at G2/M phase; assay type: functional, cell-based
[13] = tested on: CCRF-CEM; experiment: Cell cycle arrest in human CEM cells assessed as accumulation at sub-G1 phase by measuring 2N DNA content after 72 hrs; assay type: functional
[14] = Cell cycle arrest in human CCRF-CEM/VLB100 cells assessed as accumulation at sub-G1 phase by measuring 2N DNA content after 72 hrs; assay type: functional, cell-based
[15] = Induction of apoptosis in human CCRF-CEM/VLB100 cells assessed as reduction of mitochondrial potential after 24 hrs; assay type: functional; set-up: scale not given: the % may be the effect or the level left
[16] = Induction of apoptosis in human CCRF-CEM/VLB100 cells assessed as reduction of mitochondrial potential after 72 hrs; assay type: functional; set-up: scale not given: the % may be the effect or the level left
[17] = tested on: CCRF-CEM; experiment: Antitumor activity against human CEM cells xenografted in mouse assessed as reduction of tumor at 300 mg/kg/day, po administered for 26 days; assay type: functional; details: 624 h, read-out: GI
[18] = tested on: CCRF-CEM; experiment: Antitumor activity against human CEM cells xenografted in mouse assessed as reduction of tumor at 10 mg/kg/day, iv administered for 26 days; assay type: functional; details: 624 h, read-out: GI
[19] = Antitumor activity against human CCRF-CEM/VLB100 cells xenografted in mouse assessed as reduction of tumor at 300 mg/kg/day, po administered for 32 days; assay type: functional; details: 768 h, read-out: GI
[20] = tested on: HeLa; experiment: Antimitotic activity against human HeLa cells; assay type: functional, cell-based
[21] = tested on: HeLa; experiment: Cell cycle arrest in human HeLa cells assessed as accumulation at G2/M phase by measuring 4N DNA content at 6.4 uM by flow cytometry; assay type: functional
[22] = biological target: T1, Tubulin (Homo sapiens); experiment: Inhibition of MAPs-rich tubulin (unknown origin) polymerization at 50 uM; assay type: protein-complex assay
[23] = tested on: HeLa; experiment: Cell cycle arrest in human HeLa cells assessed as accumulation at G1 phase after 24 hrs by FACS analysis (reference value: 45.2%); assay type: functional
[24] = tested on: HeLa; experiment: Cell cycle arrest in human HeLa cells assessed as accumulation at S phase after 24 hrs by FACS analysis (reference value: 12.9%); assay type: functional
[25] = tested on: HeLa; experiment: Cell cycle arrest in human HeLa cells assessed as accumulation at G2/M phase after 24 hrs by FACS analysis (reference value: 16.5%); assay type: functional
[26] = tested on: HeLa; experiment: Induction of apoptosis in human HeLa cells after 24 hrs; assay type: functional
[27] = tested on: HeLa; experiment: Growth inhibition in human HeLa cells assessed as reduction of growth at 50 uM; assay type: functional; details: read-out: GI
[28] = biological target: T1, Tubulin (Homo sapiens); experiment: Inhibition of tubulin polymerization in human HeLa cells assessed as shortening of microtubules at 20 uM; assay type: cell-based; set-up: scale not given: the % may be the effect or the level left
[29] = biological target: T1, Tubulin (Homo sapiens); experiment: Inhibition of tubulin polymerization in human HeLa cells assessed as shortening of microtubules at 50 uM; assay type: cell-based; set-up: scale not given: the % may be the effect or the level left
[30] = biological target: T1, Tubulin (Homo sapiens); experiment: Inhibition of tubulin polymerization in human HeLa cells assessed as microtubules spent time in attenuated state at 50 uM; assay type: cell-based; set-up: scale not given: the % may be the effect or the level left
[31] = biological target: T1, Tubulin (Homo sapiens); experiment: Inhibition of tubulin polymerization in human HeLa cells assessed as polymeric tubulin level at 1 uM; assay type: cell-based; set-up: scale not given: the % may be the effect or the level left
[32] = biological target: T1, Tubulin (Homo sapiens); experiment: Inhibition of tubulin polymerization in human HeLa cells assessed as polymeric tubulin level at 10 uM; assay type: cell-based; set-up: scale not given: the % may be the effect or the level left
[33] = biological target: T1, Tubulin (Homo sapiens); experiment: Inhibition of tubulin polymerization in human HeLa cells assessed as polymeric tubulin level at 100 uM; assay type: cell-based; set-up: scale not given: the % may be the effect or the level left
[34] = tested on: C6; experiment: Antitumor activity against rat C6 cells xenografted in mouse assessed as reduction of tumor volume relative to control; assay type: functional
[35] = Antiproliferative activity against human LN229 cells assessed as decrease in colony formation; assay type: functional, cell-based; details: LN-229
[36] = Antiproliferative activity against human A172 cells assessed as decrease in colony formation; assay type: functional, cell-based; details: A 172
[37] = tested on: U-251; experiment: Antiproliferative activity against human U251 cells assessed as decrease in colony formation; assay type: functional, cell-based
[38] = tested on: U-251; experiment: Cell cycle arrest in human U251 cells assessed as accumulation at G1 phase at 30 uM after 24 hrs by flow cytomtery analysis (reference value: 59.62%); assay type: functional
[39] = tested on: U-251; experiment: Cell cycle arrest in human U251 cells assessed as accumulation at S phase at 30 uM after 24 hrs by flow cytomtery analysis (reference value: 18.08%); assay type: functional
[40] = tested on: U-251; experiment: Cell cycle arrest in human U251 cells assessed as accumulation at G2/M phase at 30 uM after 24 hrs by flow cytomtery analysis (reference value: 22.31%); assay type: functional
[41] = tested on: U-251; experiment: Cell cycle arrest in human TMZ-resistant U251 cells assessed as accumulation at G1 phase at 30 uM after 24 hrs by flow cytomtery analysis (reference value: 47.53%); assay type: functional
[42] = tested on: U-251; experiment: Cell cycle arrest in human TMZ-resistant U251 cells assessed as accumulation at S phase at 30 uM after 24 hrs by flow cytomtery analysis (reference value: 33.05%); assay type: functional
[43] = tested on: U-251; experiment: Cell cycle arrest in human TMZ-resistant U251 cells assessed as accumulation at G2/M phase at 30 uM after 24 hrs by flow cytomtery analysis (reference value: 19.42%); assay type: functional
[44] = Cytotoxicity against human H460 cells after 72 hrs; assay type: functional, cell-based; details: NCI-H460, 72 h
[45] = Antitumor activity against human H460 cells xenografted in athymic nu/nu mouse assessed as tumor regression at 300 mg/kg/day, po administered for 24 days; assay type: functional, NCI-H460
[46] = Antitumor activity against human H460 cells xenografted in athymic nu/nu mouse assessed as tumor regression at 450 mg/kg/day, po administered for 24 days; assay type: functional, NCI-H460
[47] = Antitumor activity against human H460 cells xenografted in athymic nu/nu mouse assessed as tumor regression at 550 mg/kg/day, po administered for 24 days; assay type: functional, NCI-H460

Compound `COc1ccc2c(c1OC)C(=O)O[C@@H]2[C@H]1c2c(cc3c(c2OC)OCO3)CCN1CC(C)=O` has an IC50 [1] of 6.9 µM, an IC50 [2] of 15.8 µM and an IC50 [3] of 28 µM. For the same compound, the IC50 [4] was 25.3 µM.

Compound `COc1ccc2c(c1OC)C(=O)O[C@@H]2[C@H]1c2c(cc3c(c2OC)OCO3)CCN1Cc1ccccc1` has an IC50 [1] of 8.3 µM, an IC50 [2] of 19.4 µM and an IC50 [3] of 37.7 µM. The IC50 [4] was 31.2 µM.

In the case of `COc1ccc2c(c1OC)C(=O)O[C@@H]2[C@H]1c2c(cc3c(c2OC)OCO3)CCN1Cc1ccc(Br)cc1`, the IC50 [1] is reported as 9 µM, the IC50 [2] is reported as 21.2 µM and the IC50 [3] is reported as 42.4 µM. It also gave an IC50 [4] of 34.1 µM.

Compound `COc1ccc2c(c1OC)C(=O)O[C@@H]2[C@H]1c2c(c(N)c3c(c2OC)OCO3)CCN1C` has a Kd [5] of 14 µM.

Work on `COc1ccc2c(c1OC)C(=O)O[C@@H]2[C@H]1c2c(c(Br)c3c(c2OC)OCO3)CCN1C` yielded a Kd [6] of 54 µM, an inhibition [7] of 66% and an inhibition [8] of 40%. It also gave an inhibition [9] of 23%, an IC50 [10] of 4 µM and an Activity [11] of 45%. For the same compound, the Activity [12] was 47%, the Activity [13] was 57% and the Activity [14] was 75%. It also gave an Activity [15] of 49%, an Activity [16] of 99% and an inhibition in vivo at 300 mg/kg/day [17] of 80%. The inhibition in vivo at 10 mg/kg/day [18] was 80%, the inhibition in vivo at 300 mg/kg/day [19] was 81% and the EC50 [20] was 7.7 µM. The Activity [21] was 51.8%.

`CCOC(=O)CN1CCc2cc3c(c(OC)c2[C@@H]1[C@H]1OC(=O)c2c1ccc(OC)c2OC)OCO3` gave an IC50 [1] of 13.6 µM, an IC50 [2] of 32.4 µM and an IC50 [3] of 72.3 µM. It also gave an IC50 [4] of 52.6 µM.

`COc1ccc2c(c1OCCCCS(=O)(=O)O)C(=O)O[C@@H]2[C@H]1c2c(cc3c(c2OC)OCO3)CCN1C` showed an inhibition [22] of 74%.

In the case of `COc1ccc2c(c1OC)C(=O)O[C@@H]2[C@H]1c2c(c([N+](=O)[O-])c3c(c2OC)OCO3)CCN1C`, the Kd [5] is reported as 86 µM.

Work on `COc1ccc2c(c1OC)C(=O)O[C@@H]2[C@H]1c2c(cc3c(c2OC)OCO3)CCN1C` [NOSCAPINE] yielded an Activity [23] of 6.4%, an Activity [24] of 11.1% and an Activity [25] of 42.9%. It also gave an Activity [26] of 50%, an inhibition of growth at 50 µM [27] of 42.4% and an Activity [28] of 21.6%. The Activity [29] was 24.3%, the Activity [30] was 12.7% and the Activity [31] was 58.3%. The Activity [32] was 59.2%, the Activity [33] was 59.2% and the “growth inhibition (GI)” value [34] was 60%. The IC50 [35] was 70 µM, the IC50 [36] was 20 µM and the IC50 [37] was 40 µM. The Activity [38] was 28.92%, the Activity [39] was 23.33% and the Activity [40] was 47.75%. The Activity [41] was 21.54%, the Activity [42] was 25.33% and the Activity [43] was 23.13%. The IC50 [44] was 34.7 µM, the Activity [45] was 49% and the Activity [46] was 65%. For the same compound, the Activity [47] was 86%, the EC50 [20] was 18.4 µM and the Activity [21] was 15.2%. It also gave an IC50 [1] of 14.5 µM and an IC50 [3] of 72.9 µM.

`COc1ccc2c(c1OC)C(=O)O[C@@H]2[C@H]1c2c(cc3c(c2OC)OCO3)CCN1Cc1ccc([N+](=O)[O-])cc1` showed an IC50 [1] of 10 µM, an IC50 [2] of 23.7 µM and an IC50 [3] of 49 µM. The IC50 [4] was 38.2 µM.

For `COc1ccc2c(c1OC)C(=O)O[C@@H]2[C@H]1c2c(cc3c(c2OC)OCO3)CCN1Cc1cccc(Br)c1`, the IC50 [1] was 7.5 µM, the IC50 [2] was 17.3 µM and the IC50 [3] was 32.1 µM. It also gave an IC50 [4] of 27.8 µM.

— ChEMBL document CHEMBL3596161, “Progress Toward the Development of Noscapine and Derivatives as Anticancer Agents” (J Med Chem, 2015)
